Literature values in EP4759820A1, “METHOD FOR PRODUCING PEPTIDE COMPOUND USING STAND-ALONE-TYPE CONDENSING AGENT” (CHUGAI SEIYAKU KABUSHIKI KAISHA, priority 2023, dated 2025).
Where two headings read alike, the source gives them in different places.

Conditions: water as solvent, 25°C, literature reference given with each value

| Structure (SMILES) | pKa (representative additives) | pKa (conjugate acid of the base) |
| --- | --- | --- |
| CN1C(=O)C(=NO)c2ccccc21 [3-(Hydroxyimino)-1-methylindolin-2-one] | 9.4 | – |
| NC(=O)C(=NO)c1ncccn1 [2-(Hydroxyimino)-2-(pyrimidin-2-yl)acetamide] | 9.4 | – |
| NC(=O)C(=NO)c1ccco1 [2-(Furan-2-yl)-2-(hydroxyimino)acetamide] | 9.4 | – |
| ON=C1NCCN1 [Imidazolidin-2-one oxime] | 12.5 | – |
| CS(=O)(=O)C(=NO)C(N)=O [2-(Hydroxyimino)-2-(methylsulfonyl)acetamide] | 9.4 | – |
| NC(=O)C(=NO)c1ccc[nH]1 [2-(Hydroxyimino)-2-(1H-pyrrol-2-yl)acetamide] | 9.4 | – |
| CN1CCOCC1 [N-methylmorpholine] | – | 7.38 |
| O=[N+]([O-])C(=NO)c1ccccc1 [Nitro(phenyl)methanone oxime] | 7.6 | – |
| NC(=O)C(=NO)c1cccs1 [2-(Hydroxyimino)-2-(thiophen-2-yl)acetamide] | 9.4 | – |
| CCOC(=O)C(NO)C(=O)OCC [Diethyl 2-(hydroxyamino)malonate] | 7.2 | – |
| CCOC(=O)C(=NO)c1ccccn1 [Ethyl 2-(hydroxyimino)-2-(pyridine-2-yl)acetate] | 9.6 | – |
| NC(=NO)c1cnccn1 [N'-Hydroxypyrazine-2-carboximidamide] | 12.5 | – |
| CCOC(=O)C(=NO)c1cnccn1 [Ethyl 2-(hydroxyimino)-2-(pyrazin-2-yl)acetate] | 9.4 | – |
| CN(C)[S+]([O-])C(=NO)c1ccccc1 (stereo not shown) [1-(Hydroxyimino)-N,N-dimethyl-1-phenylmethanesulfinamide] | 7.4 | – |
| NC(=S)C(=NO)c1ncccn1 [2-(Hydroxyimino)-2-(pyrimidin-2-yl)ethanethioamide] | 10.5 | – |
| C#CC(=NO)C(=O)OCC [Ethyl 2-(hydroxyimino)but-3-ynoate] | 9.6 | – |
| ON=c1[nH]cco1 [Oxazol-2(3H)-one oxime] | 6.6 | – |
| ON=C1c2ccccc2C(=NO)c2ccccc21 [Anthracene-9,10-dionedioxime] | 7.1 | – |
| N#CC(=NO)c1ccccc1 [Hydroxyimino-2-phenylacetonitrile] | 8.2 | – |
| CC(=NO)C(C)=NO [Butane-2,3-dionedioxime] | 12.1 | – |
| CCOC(=O)C(=NO)c1ncccn1 [Ethyl 2-(hydroxyimino)-2-(pyrimidin-2-yl)acetate] | 9.6 | – |
| CCOC(=O)C(C#N)=NO [oxyma, ethyl 2-cyano-2-(hydroxyimino)acetate] | 4.60 | – |
| CC(C)(C)OC(=O)C(C#N)=NO [tert-Butyl 2-cyano-2-(hydroxyimino)acetate] | 4.60 | – |

| Structure (SMILES) | pKa (representative additives) | pKa (conjugate acid of the base) |
| --- | --- | --- |
| CCOC(=O)C(NO)[N+](=O)[O-] (stereo not shown) [Ethyl 2-(hydroxyamino)-2-nitroacetate] | 4.7 | – |
| O=C1CCC(=O)N1O [HOSu, 1-Hydroxypyrrolidine-2,5-dione] | 7.7 | – |
| CCOC(=O)C(=NO)c1ccco1 [Ethyl 2-(furan-2-yl)-2-(hydroxyimino)acetate] | 9.6 | – |
| CC(C)OC(=O)C(=NO)C(=O)OC(C)C [Diisopropyl 2-(hydroxyimino)malonate] | 7.2 | – |
| C#CC(=NO)C(N)=O [2-(Hydroxyimino)but-3-ynamide] | 9.4 | – |
| CCOC(=O)C(=NO)c1ccc[nH]1 [Ethyl 2-(hydroxyimino)-(1H-pyrrol-2-yl)acetate] | 9.6 | – |
| O=[N+]([O-])C(CCc1ccccc1)=NO [1-Nitro-3-phenylpropan-1-oneoxime] | 7.4 | – |
| NC(=O)C(=NO)C(N)=O [2-(Hydroxyimino)malonamide] | 9.4 | – |
| NC(=O)C(=NO)c1cnccn1 [2-(Hydroxyimino)-2-(pyrazin-2-yl)acetamide] | 9.4 | – |
| CCOC(=O)C(=NO)c1ccncc1 [Ethyl 2-(hydroxyimino)-2-(pyridine-4-yl)acetate] | 9.6 | – |
| CCOC(=O)C(=NO)S(N)(=O)=O [Ethyl 2-(hydroxyimino)-2-sulfamoylacetate] | 5.8 | – |
| CS(=O)(=O)C(=NO)[S+](N)[O-] (stereo not shown) [(Hydroxyimino)(methylsulfonyl)methanesulfinamide] | 9.4 | – |
| ON=c1[nH]cc[nH]1 [1,3-Dihydro-2H-imidazol-2-one oxime] | 8.2 | – |
| NC(=O)C(NO)C(=O)N(O)O (stereo not shown) [N',N'-Dihydroxy-2-(hydroxyamino)malonamide] | 7.7 | – |
| C[n+]1ccccc1C(=NO)c1ccccn1.[I-] [2-((Hydroxyimino)(pyridin-2-yl)methyl)-1-methylpyridin-1-iumiodide] | 5.6 | – |
| O=C1C(=NO)c2ccccc2N1c1ccccc1 [3-(Hydroxyimino)-1-phenylindoline-2-one] | 9.0 | – |
| O=c1c2ncccc2ncn1O [HODhad, 3-Hydroxypyrido[3,2-d]pyrimidin-4(3H)-one] | 5.8 | – |
| O=C1Cc2ccccc2N1O [HOI, 1-Hydroxyindolin-2-one] | 8.3 | – |
| NC(=O)C(=NO)c1nccs1 [2(Hydroxyimino)-2-(thiazol-2-yl)acetamide] | 8.7 | – |
| ON=C1c2ccccc2-c2ccccc21 [9H-Fluoren-9-one oxime] | 11.1 | – |
| ON=C1NCCO1 [Oxazolidin-2-one oxime] | 12.5 | – |
| CCOC(=O)C(=NO)c1cccs1 [Ethyl 2-(hydroxyimino)-2-(thiophen-2-yl)acetate] | 9.6 | – |
| CCOC(=O)C(=NO)S(=O)(=O)C(F)(F)F [Ethyl 2-(hydroxyimino)-2-((trifluoromethyl)sulfonyl)acetate] | 4.2 | – |
